From patent US20220047545A1 (priority 2020, published 2022)

Tests used:
[1] = molecular target: RBD of SARS-CoV-2 spike protein binding to hACE2 receptor (Severe acute respiratory syndrome coronavirus 2, UniProt P0DTC2)
[2] = molecular target: RBD of SARS-CoV-2 spike protein (Severe acute respiratory syndrome coronavirus 2, UniProt P0DTC2); settings: literature computational study; cited from earlier work
[3] = test system: cathepsin L expression in A549 cells; experiment: Cathepsin L expression in A549 cells (Western blot); format: cell-based, human; settings: A549 cells
Experimental: Proteins (50 μg/well) were separated on 8-16% gradient SDS-PAGE gels and transferred to a PVDF membrane. […] Images were captured with Azure™ cSeries digital imaging system (Azure Biosystems, Dublin, Calif.) with auto-exposure settings. Densitometry was performed with NIH ImageJ software.
Cathepsin L expression: Expression of cathepsin L in cells was performed using Western blot. Briefly, 48 hours prior to the analysis, A549 cells were treated with PB at 5.0, and 10 μg/ml concentrations. Next, cells were washed with 1×PBS, lysed, and processed according to procedure described below.
Western blot: […] cells were lysed with lysis buffer [RIPA buffer plus 1× Protease Inhibitor (ThermoFisher Scientific, Waltham, Mass.)]. The protein estimation was performed with Dc Protein Assay (Bio-Rad, Hercules, Calif.). A 45 μg/well of protein was separated on 8-16% gradient SDS-PAGE gels and transferred to a PVDF membrane. Detection was performed with antibodies against cathepsin L at 1:200 dilution (Santa Cruz Biotechnology, Santa Cruz, Calif.) and against β-actin at 1:1000 dilution (Cell Signaling, Danvers, Mass.).

hACE2 [4] = molecular target: T1, hACE2 (Homo sapiens, UniProt Q9BYF1); settings: literature computational study (Jena et al.); cited from earlier work
hACE2 [5] = molecular target: T1, hACE2; experiment: ACE2 binding assay (ACE2 Inhibitor Screening Assay Kit); parameters: purchased BPS Bioscience

T1 sequence (Q9BYF1 18-805): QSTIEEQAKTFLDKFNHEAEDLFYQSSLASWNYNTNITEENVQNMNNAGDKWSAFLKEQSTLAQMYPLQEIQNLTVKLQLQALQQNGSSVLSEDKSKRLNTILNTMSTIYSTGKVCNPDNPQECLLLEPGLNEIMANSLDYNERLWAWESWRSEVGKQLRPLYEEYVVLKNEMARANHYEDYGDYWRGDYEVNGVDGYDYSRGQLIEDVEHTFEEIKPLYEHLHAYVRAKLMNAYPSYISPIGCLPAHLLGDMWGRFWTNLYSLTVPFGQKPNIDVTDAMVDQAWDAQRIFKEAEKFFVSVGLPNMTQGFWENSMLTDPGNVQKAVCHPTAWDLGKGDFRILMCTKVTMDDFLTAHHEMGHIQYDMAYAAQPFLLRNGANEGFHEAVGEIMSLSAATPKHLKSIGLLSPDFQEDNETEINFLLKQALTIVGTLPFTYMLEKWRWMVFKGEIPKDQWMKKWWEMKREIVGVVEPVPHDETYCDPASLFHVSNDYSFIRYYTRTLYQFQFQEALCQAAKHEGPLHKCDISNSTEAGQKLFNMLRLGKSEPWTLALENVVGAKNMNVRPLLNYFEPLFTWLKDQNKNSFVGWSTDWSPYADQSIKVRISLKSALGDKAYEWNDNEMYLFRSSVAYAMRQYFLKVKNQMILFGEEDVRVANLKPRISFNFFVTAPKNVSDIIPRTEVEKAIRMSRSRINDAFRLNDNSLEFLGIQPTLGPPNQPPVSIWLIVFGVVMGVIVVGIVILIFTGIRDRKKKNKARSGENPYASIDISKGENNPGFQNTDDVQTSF

Row | Compound | Binding with RBD (% of control ± SD) [1] | further results
1 | C=C(C)[C@@H]1CCC(C)=C[C@H]1c1c(O)cc(CCCCC)cc1O [Cannabidiol, reference compound] | 1.4 ± 0.3 % of control | 
2 | COc1ccc([C@@H]2CC(=O)c3c(O)cc(O[C@@H]4O[C@H](CO[C@@H]5O[C@@H](C)[C@H](O)[C@@H](O)[C@H]5O)[C@@H](O)[C@H](O)[C@H]4O)cc3O2)cc1O [Hesperidin] | 90.3 ± 3.8 % of control | enhancement of blocking the RBD binding by Formula 1 when micronutrient tested individually [1]: only minimal enhancement
3 | O[C@H]1[C@H](O)[C@@H](O)CN2CC[C@H](O)[C@H]12 [Castanospermine] | 8.2 ± 2.3 % of control | 
4 | C[C@@H]1O[C@@H](O[C@H]2[C@H](Oc3cc(O)c4c(c3)O[C@H](c3ccc(O)cc3)CC4=O)O[C@H](CO)[C@@H](O)[C@@H]2O)[C@H](O)[C@H](O)[C@H]1O [Naringin] | 23.6 ± 6.4 % of control | 
5 | C[C@@H]1O[C@@H](OC[C@H]2O[C@@H](Oc3c(-c4ccc(O)c(O)c4)oc4cc(O)cc(O)c4c3=O)[C@H](O)[C@@H](O)[C@@H]2O)[C@H](O)[C@H](O)[C@H]1O [Rutin] | 20.6 ± 6.3 % of control | 
6 | COc1c(O)cc2oc(-c3ccc(O)cc3)cc(=O)c2c1O [Hispidulin] | 20.1 ± 6.0 % of control | 
7 | O=C(OC1Cc2c(O)cc(O)cc2OC1c1cc(O)c(O)c(O)c1)c1cc(O)c(O)c(O)c1 (single isomer, unassigned; (+)) [(+)-epigallocatechin gallate] | 87.5 ± 6.8 % of control | 
8 | O=c1c(O)c(-c2ccc(O)c(O)c2)oc2cc(O)cc(O)c12 [Quercetin] | 22.4 ± 6.5 % of control | 
9 | O=c1c(O)c(-c2ccc(O)cc2O)oc2cc(O)cc(O)c12 [Morin] | 30.5 ± 5.8 % of control | 
10 | O=c1oc2cc(O)ccc2c2ccc(O)cc12 [Urolithin A] | 31.1 ± 4.6 % of control | 
11 | Oc1cc(O)cc(O)c1 [Phloroglucinol] | 69.5 ± 3.6 % of control | 
12 | O=C(O[C@@H]1Cc2c(O)cc(O)cc2O[C@H]1c1ccc(O)c(O)c1)c1cc(O)c(O)c(O)c1 [(−)-catechin gallate] | 37.4 ± 4.7 % of control | 
13 | Oc1cc(O)c2c(c1)O[C@H](c1cc(O)c(O)c(O)c1)[C@@H](O)C2 [(+)-gallocatechin] | 69.5 ± 2.8 % of control | 
14 | C[S+]([O-])CCCCN=C=S [L-sulforaphane] | 30.2 ± 3.6 % of control | 
15 | O=C(O)[C@H]1O[C@@H](Oc2cc3oc(-c4ccc(O)cc4)cc(=O)c3c(O)c2O)[C@H](O)[C@@H](O)[C@@H]1O [Scutellarin] | 8.1 ± 3.7 % of control | 
16 | O=c1c(O)c(-c2ccc(O)cc2)oc2cc(O)cc(O)c12 [Kaemferol] | 15.6 ± 2.9 % of control | 
17 | O=c1c(O)c(-c2ccc(O)c(O)c2)oc2cc(O)ccc12 [Fisetin] | 22.4 ± 1.9 % of control | 
18 | C=C(C)[C@H]1CC=C(C)CC1 [D-limonene] | 27.2 ± 6.4 % of control | 
19 | O=C(O)CC(O)C(=O)O (stereo not shown) [Malic acid] | 1.2 ± 3.7 % of control | 
20 | Oc1cc(O)c2c(c1)O[C@H](c1ccc(O)c(O)c1)[C@H](O)[C@H]2c1c(O)cc(O)c2c1O[C@H](c1ccc(O)c(O)c1)[C@H](O)C2 [Procyanidin B2] | 31.1 ± 3.6 % of control | 
21 | C=C1CC[C@@H]2[C@](C)(CO)[C@H](O)CC[C@@]2(C)[C@@H]1C/C=C1/C(=O)OC[C@H]1O [Andrographolide] | 22.1 ± 2.5 % of control | 
22 | O=c1c(O)cc([C@H]2Oc3cc(O)cc(O)c3C[C@H]2O)cc2c([C@H]3Oc4cc(O)cc(O)c4C[C@H]3O)cc(O)c(O)c12 [Theaflavin] | 27.3 ± 1.4 % of control | 
23 | O=C(O)c1cc(O)c(O)c(O)c1 [Gallic acid] | 18.3 ± 4.5 % of control | 
24 | O=c1cc(-c2ccc(O)cc2)oc2cc(O)cc(O)c12 [Apigenin] | 17.1 ± 4.1 % of control | 

Row | Compound | Binding with RBD (% of control ± SD) [1] | further results
25 | COc1cc(/C=C/C(=O)CC(=O)/C=C/c2ccc(O)c(OC)c2)ccc1O [Curcumin] | 100 ± 0.2 % of control | binding energy ΔG to RBD / viral spike protein [2]: -43.9 kJ/mol; cathepsin L expression at protein level [3]: neither brazilin nor curcumin down-regulated cathepsin L expression; binding energy to hACE2 (hACE2 [4]): -37.2 kJ/mol; concentration at which binding efficacy to ACE2 was shown (hACE2 [5]): 10 to 25 µg/mL
26 | COc1cc(/C=C/c2ccc(O)cc2)cc(OC)c1 [Pterostillbene] | 23.1 ± 2.8 % of control | 
27 | Oc1ccc(/C=C/c2cc(O)cc(O)c2)cc1 [Trans-resveratrol] | 22.3 ± 2.9 % of control | 
28 | O=C(/C=C/c1ccc(O)c(O)c1)O[C@@H]1C[C@](O)(C(=O)O)C[C@@H](O)[C@H]1O [Chlorogenic acid] | 25.5 ± 2.5 % of control | 
29 | CC(=O)c1c(O)c(C)c(O)c2c1OC1=CC(=O)C(C(C)=O)C(=O)C12C (stereo not shown) [Usnic acid] | 22.0 ± 3.4 % of control | 
30 | O=c1c(O)c(-c2cc(O)c(O)c(O)c2)oc2cc(O)cc(O)c12 [Myricetin] | 45.5 ± 5.4 % of control | 
31 | COc1ccc([C@@H]2CC(=O)c3c(O)cc(O)cc3O2)cc1O [Hesperetin] | 42.5 ± 4.6 % of control | 
32 | Oc1cc(O)c2c(c1)O[C@H](c1ccc(O)c(O)c1)[C@@H](O)[C@@H]2c1c(O)cc(O)c2c1O[C@H](c1ccc(O)c(O)c1)[C@@H](O)C2 [Procyanidin B3] | 32.3 ± 3.7 % of control | 
33 | catechin [cathechin] |  | binding energy ΔG to RBD / viral spike protein [2]: -33.1 kJ/mol; binding energy to hACE2 (hACE2 [4]): -32.6 kJ/mol
34 | O=C(OC[C@H]1O[C@@H](OC(=O)c2cc(O)c(O)c(OC(=O)c3cc(O)c(O)c(O)c3)c2)[C@H](OC(=O)c2cc(O)c(O)c(OC(=O)c3cc(O)c(O)c(O)c3)c2)[C@@H](OC(=O)c2cc(O)c(O)c(OC(=O)c3cc(O)c(O)c(O)c3)c2)[C@@H]1OC(=O)c1cc(O)c(O)c(OC(=O)c2cc(O)c(O)c(O)c2)c1)c1cc(O)c(O)c(OC(=O)c2cc(O)c(O)c(O)c2)c1 [Tannic acid] | 79.4 ± 2.3 % of control | 
35 | Oc1cc(O)c2c(c1)O[C@@H](c1cc(O)c(O)c(O)c1)[C@H](O)C2 [(−)-gallocatechin] | 73.5 ± 6.7 % of control | 
36 | O=C1C[C@@H](c2ccc(O)cc2)Oc2cc(O)cc(O)c21 [Naringenin] | 20 ± 5.1 % of control | 
37 | (−)-gallocatechin gallate | 75.4 ± 5.6 % of control | 
38 | COc1cc2c(cc1OC)-c1cc3ccc(OC)c(OC)c3c[n+]1CC2 [Palmatine] | 40.4 ± 6.1 % of control | 
39 | O=C(/C=C/c1ccc(O)c(O)c1)O[C@H](Cc1ccc(O)c(O)c1)C(=O)O [Rosmarinic acid] | 22.5 ± 3.8 % of control | 
40 | COc1ccc2cc3[n+](cc2c1OC)CCc1cc2c(cc1-3)OCO2 [Berberine] | 17.3 ± 2.7 % of control | 
41 | O=C(O)[C@H]1O[C@@H](Oc2cc3oc(-c4ccccc4)cc(=O)c3c(O)c2O)[C@H](O)[C@@H](O)[C@@H]1O [Baicalin] | 10.3 ± 2.9 % of control | enhancement of blocking the RBD binding by Formula 1 when micronutrient tested individually [1]: only minimal enhancement
42 | O=C1O[C@H]2[C@@H]3OC(=O)c4cc(O)c(O)c(O)c4-c4c(O)c(O)c5oc(=O)c6c(c(O)c(O)c7oc(=O)c4c5c76)-c4c(cc(O)c(O)c4O)C(=O)OC[C@H]3OC(O)[C@@H]2OC(=O)c2cc(O)c(O)c(O)c2-c2c1cc(O)c(O)c2O (mixture of isomers) [Punicalagin] | 32.3 ± 5.9 % of control | 
43 | COc1ccc(Cc2nccc3cc(OC)c(OC)cc23)cc1OC [Papaverine, reference compound] | 1.6 ± 0.2 % of control | 
44 | O=c1cc(-c2ccc(O)c(O)c2)oc2cc(O)cc(O)c12 [Luteolin] | 10.4 ± 4.7 % of control | enhancement of blocking the RBD binding by Formula 1 when micronutrient tested individually [1]: only minimal enhancement
45 | O=c1cc(-c2ccccc2)oc2cc(O)c(O)c(O)c12 [Baicalein] | 22.5 ± 5.1 % of control | 
46 | O=c1c(-c2ccc(O)cc2)coc2cc(O)cc(O)c12 [Genistein] | 22.1 ± 2.8 % of control | 
47 | CC(C)c1cc2c(c(O)c1O)[C@@]1(C(=O)O)CCCC(C)(C)[C@@H]1CC2 [Carnosic acid] | 27.1 ± 5.1 % of control | 
